Where a SMILES comes first, the peptide text is derived from it. Where no end group is shown, it is not given here. [ ]: non-standard residue; d: D form. Ahx = NCCCCCC(=O)O
Assays:
[1] = tested on: intracranial U87 glioma; test: Kaplan-Meier survival of intracranial glioma bearing nude mice; type: in vivo; details: n = 8
Method: The intracranial glioma bearing mice were used to evaluate the anti-glioma efficacy of various therapeutic regimen.
Concurrent combination chemotherapy has been emerging as a promising approach to improve the efficacy of cancer therapy [29]-[31]. Thus, ^DWVAP Micelle/PTL was used in combination with TMZ and ^DWVAP Micelle/PTX respectively in the present study. For TMZ dosage regimen, mice were randomly divided into four groups (n = 8) and treated with 100 μL of saline, ^DWVAP Micelle/PTL (5 mg/kg), TMZ (10 mg/kg) and ^DWVAP Micelle/PTL plus TMZ (5 mg/kg and 10 mg/kg, respectively) via oral gavage or tail vein. […] Compared with TMZ, the combinational therapy prolonged the median survival time by 2.10 times (Figure 6A). […] The slices were also stained with anti-CD133 antibody to quantify glioma stem cells. […]
Figure 6 Kaplan-Meier survival curves of intracranial glioblastoma-implanted nude mice treated with different regimens. […] Quantification of angiogenesis inhibition in tumors with different formulations in comparison to saline group (D). […] Quantification of TUNEL positive cells in tumors with different formulations in comparison to saline group (F). […] Quantification of tumor stem cell inhibition in tumors with different formulations in comparison to saline group (H). […]

[2] = tested on: NF-κB p65 nuclear translocation in U87 cells; test: NF-κB activation and nuclear translocation assay (immunofluorescence); type: cell-based; details: 24 h treatment, Figure 7D-F
Text: NF-κB plays a pivotal role in tumorigenesis through multiple signaling pathways. Aberrant activation of NF-κB has been observed in various types of cancer. Constitutive activation of NF-κB often causes bad response or resistance to chemotherapeutics, tumor recurrence, and poor outcome of treatment. Conversely, inhibition of NF-κB could sensitize the glioma cells to chemotherapy. The combination of PTL with PTX and TMZ in the present study enhanced anti-glioma efficacy in experimental animals. Since PTL is a potent inhibitor of NF-κB, the inhibitory activities of different PTL formulations on NF-κB pathway were examined. Immunofluorescence was used to detect NF-κB activation and nuclear translocation. After treatment with different formulations for 24 h, cells were processed for confocal fluorescence microscopic imaging. […] In addition, we also analyzed the p65 protein level in the nucleus of U87 cells by western blotting (Figure S7) and the results were consistent with immunofluorescence.
NF-κB activation and nuclear translocation assay was performed according to the reagent manufacturer's instructions (Beyotime Biotech, China). Briefly, cells were seeded in four-well disk and then treated with different drug loaded micelles or free drug alone or in combinations for 24 h. […] The protein concentrations were quantified using BCA Protein Assay Kit (Thermo Fisher Scientific). […]

[3] = tested on: U87 cells; test: Cellular internalization of fluorescein labelled peptides in U87 cells (flow cytometry); type: cell-based; details: 4 hours, Figure S1
Method: (§1) The targeting ability of ^DWVAP was evaluated in primary rat brain capillary endothelial cells (BCECs), HUVECs and U87 cells. […] OPC cells were previously proven as a cell line of glioma cell-of-origin with under-appreciated proliferative and plastic potentials. OPC cells were used here to evaluate the GSCs targeting effect of the developed peptides. […] In vivo, near-infrared dye Cy7 was conjugated with peptides and the conjugates were intravenously injected via the tail vein to test the targeting effect of ^DWVAP.
(§2) Brain capillary endothelial cells (BCEC), U87 cells and HUVEC cells were used to investigate the peptides targeting ability since they were main component of BBB, tumor and tumor vessels respectively. OPC cells were used to evaluate the glioma stem cell targeting ability in vitro [38]. Cellular uptake behavior was observed by the confocal microscope and the fluorescent intensity was captured by flow cytometry 4 hours after pre-incubation with different fluorescein labelled peptides.

[4] = tested on: HUVECs; test: Cellular internalization of fluorescein labelled peptides in HUVECs (flow cytometry); type: cell-based, human; details: 4 hours, Figure S1
Method: as §1, §2

[5] = tested on: OPC cells; test: Cellular internalization of fluorescein labelled peptides in OPC cells (GSC targeting); type: cell-based; details: confocal microscopy, Figure 2E
Method: as §1, §2

[6] = target: T1, Recombinant human GRP78 protein (human, UniProt P11021 19-654); test: SPR; Biacore T200; recombinant human GRP78 amine-coupled to a CM5 sensor chip; peptides in 2-fold serial dilution injected at 30 µL/min; buffer HBS-N or HBS-EP (methods); details: both partners purified
T1 construct: GRP78, human, recombinant; No catalogue number, tag or limits printed; source: bought: Abcam
T1 sequence (P11021 19-654): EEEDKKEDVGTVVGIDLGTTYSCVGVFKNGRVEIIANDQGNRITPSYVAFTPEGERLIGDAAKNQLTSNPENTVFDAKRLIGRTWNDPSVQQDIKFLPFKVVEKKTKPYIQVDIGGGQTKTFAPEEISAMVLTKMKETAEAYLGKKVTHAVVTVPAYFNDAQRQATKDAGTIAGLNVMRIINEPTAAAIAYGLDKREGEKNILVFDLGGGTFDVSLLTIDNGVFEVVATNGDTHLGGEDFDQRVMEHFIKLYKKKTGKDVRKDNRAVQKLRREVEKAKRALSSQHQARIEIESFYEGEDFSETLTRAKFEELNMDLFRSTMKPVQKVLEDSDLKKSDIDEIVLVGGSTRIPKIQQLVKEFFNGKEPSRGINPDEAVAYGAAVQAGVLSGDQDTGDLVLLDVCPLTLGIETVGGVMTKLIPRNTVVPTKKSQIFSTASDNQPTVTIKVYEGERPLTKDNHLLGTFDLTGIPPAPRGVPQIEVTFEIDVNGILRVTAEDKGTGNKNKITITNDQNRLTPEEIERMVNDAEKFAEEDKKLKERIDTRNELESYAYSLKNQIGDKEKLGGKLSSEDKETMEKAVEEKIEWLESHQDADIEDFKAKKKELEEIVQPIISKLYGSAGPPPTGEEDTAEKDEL

CC(=O)O[C@H]1C(=O)[C@@]2(C)[C@H]([C@H](OC(=O)c3ccccc3)[C@]3(O)C[C@H](OC(=O)[C@H](O)[C@@H](NC(=O)c4ccccc4)c4ccccc4)C(C)=C1C3(C)C)[C@]1(OC(C)=O)CO[C@@H]1C[C@@H]2O [Taxol, Paclitaxel]
median survival time ([1]; Figure S5A, four injections, 6 mg/kg PTX each, at 6, 9, 12 and 15 days after implantation): 20 days

C=C1C(=O)O[C@H]2[C@H]1CC/C(C)=C/CC[C@@]1(C)O[C@@H]21 [PTL, Parthenolide]
p65 nuclear translocation [2]: inhibition of p65 | median survival ([1]; Figure S5B, 5 mg/kg PTL at 6, 8, 10, 12 and 14 days post-tumor implantation, saline 29.5 days): 32 days

CC(C)[C@@H](NC(=O)[C@@H](CCCNC(=N)N)NC(=O)[C@H](NC(=O)[C@@H](CC(N)=O)NC(=O)[C@H](N)CO)[C@H](C)O)C(=O)N[C@H](C)C(=O)N1CCC[C@@H]1C(=O)N[C@H](CS)C(=O)O [^DVAP] (HELM PEPTIDE1{[dS].[dN].[dT].[dR].[dV].[dA].[dP].[dC]}$$$$V2.0; N-terminus and C-terminus assumed)
fluorescence-positive U87 cells [3]: More than 90% | fluorescence-positive HUVECs [4]: > 80% | uptake by OPC cells [5]: effectively taken up

B1: ^DVAP peptide (peptide)
peptide: [dS][dN][dT][dR][dV][dA][dP][dC]
notes: all-D peptide ligand of GRP78; also called ^DS^DN^DT^DR^DV^DA^DP; ^DS^DN^DT^DR^DV^DA^DP^DC; source: synthetic peptide, bought: Karebay Biochem
Kd [6]: 102 nM

B2: "Y-shaped" ^DWVAP peptide (peptide)
peptide: [dS][dN][dT][dR][dV][dA][dP][dC][Ahx][dW][dS][dW]G[dP][dY][dS]
modifications: not fully specified
notes: ^DVAP stretch (all-D) with D-Cys, ligand of GRP78; ^DWSW stretch (all-D), quorum-sensing peptide; joined to the first stretch through aminocaproic acid (Ahx), which has no one-letter code; also called ^DWVAP-Cys; ^DS^DN^DT^DR^DV^DA^DP^DC-Ahx-^DW^DS^DW^DG^DP^DY^DS; source: synthetic peptide (solid phase peptide synthesis)
Kd [6]: 686 nM

Source: article PMC7086363, “All-stage precisional glioma targeted therapy enabled by a well-designed D-peptide” (Theranostics, 2020)
